The text below walks through data of PMC13266999, “Designing Antibiotics with Inherent Resistance to Efflux as a Strategy to Revive Discovery against Multidrug-Resistant Pathogens” (Journal of Medicinal Chemistry, 2026).

For series [1] the following is noted: male, ICR, mouse, in vivo, po.
The test system of a further series is A. baumannii strain AYE. In words: Time-kill assay. The series is classed as cell-based. Particulars: 4 × MIC. The procedure: Time-kill assays were performed as defined previously.
A further series deals with E. faecalis. In words: MIC (microbroth dilution). The series is classed as cell-based, Enterococcus faecalis. Particulars: for MIC: Enterococcus faecalis. The method, boiled down: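 Overnight stationary-phase cultures back-diluted and tested by broth microdilution with 2-fold compound series. MIC is lowest concentration with no visible growth, with OD600 also read. Separate runs included polymyxin B nonapeptide at 30 μg/mL final as outer-membrane permeabilizer.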

The next series concerns S. haemolyticus. In words: MIC (microbroth dilution). The series is classed as cell-based, Staphylococcus haemolyticus. Particulars: Staphylococcus haemolyticus, ATCC29970; ATCC 29970; read-out: MIC. The procedure: (§1) All bacteria were maintained on tryptic soy agar (TSA), except Streptococcus spp., which were maintained on Columbia agar plates containing 5% horse blood. All bacterial assays were carried out in tryptic soy broth (TSB), except for Streptococcus spp. which were grown in cation-adjusted Mueller Hinton broth containing 2.5% lysed horse blood. Bacteria were grown to stationary phase in liquid culture overnight, with shaking at 200 rpm, before being back diluted to the relevant starting concentration for each assay below. MICs were measured by the microbroth dilution method. […] Absorbance at OD600 was read on a CLARIOstar spectrophotometer (BMG Labtech) and the MIC was defined as the minimum concentration of compound where no visible growth was detected. The compounds were prepared as a DMSO stock and equivalent concentrations of DMSO had no effect on bacterial growth. MICs were also performed in the presence of the outer membrane permeator, polymyxin b nonapeptide (PMBN) following the same MIC method but with the following variation. The 2-fold dilution series of compound was prepared as above, then 50 μL of PMBN at a final concentration of 30 μg/mL was added to relevant wells, while 50 μL/well of blank media was added to the remaining wells. Bacteria were then added at 50 μL/well for a starting concentration as above. Thirty μg/mL of PMBN had no effect on bacterial growth. The MICs were read and defined as above. All animal procedures were performed by the contract research organization Pharmacology Discovery Services Taiwan in accordance with the Guide for the Care and Use of Laboratory Animals. The procedures were approved by the Institutional Ethics Committee of Pharmacology Discovery Services Taiwan, Ltd. (approval no. AB127662), in compliance with animal welfare legislation in Taiwan.
(Dilution methods test growth across graded concentrations, often in twofold steps.)

Series [2] relates to Staphylococcus saprophyticus. As to the kind of experiment: MIC (microbroth dilution). The series is classed as cell-based. Particulars: ATCC15305, ATCC 15305. The essentials:
(§2)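 Broth microdilution MICs were run in tryptic soy broth, or for Streptococcus spp. in cation-adjusted Mueller Hinton broth with 2.5% lysed horse blood, using overnight stationary-phase cultures back-diluted. MIC was the lowest concentration with no visible growth, with OD600 also read. Some MICs included PMBN at 30 μg/mL final.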

The subject of series [3] is Streptococcus intermedius. As to the kind of experiment: MIC (microbroth dilution). The series is classed as cell-based. Particulars: ATCC29663, ATCC 29663. The essentials:
as §2

Another series deals with Streptococcus mutans. As to the kind of experiment: MIC (microbroth dilution). The series is classed as cell-based. Particulars: ATCC25175, ATCC 25175. The method, boiled down: as §2
Another series concerns Enterococcus gallinarum. As to the kind of experiment: MIC (microbroth dilution). The series is classed as cell-based. Particulars: VanC (ATCC 49608). The method, boiled down: as §2
The next series deals with Streptococcus pneumoniae. As to the kind of experiment: MIC (microbroth dilution). The series is classed as cell-based. Particulars: for MIC: Streptococcus pneumoniae. The method, boiled down: as §2
Another series has as its system Streptococcus sanguinis. In words: MIC (microbroth dilution). The series is classed as cell-based. Particulars: ATCC10556, ATCC 10556. The method, boiled down: as §2
The next series has as its system Streptococcus oralis. As to the kind of experiment: MIC (microbroth dilution). Type of series: cell-based. Particulars: ATCC9811, ATCC 9811. The essentials: as §2
Another series concerns Streptococcus salivarius. In words: MIC (microbroth dilution). The series is classed as cell-based. Particulars: ATCC13419, ATCC 13419. The essentials:
as §2

Series [4] has as its system S. oralis, S. mutans, S. salivarius, S. sanguinis, and S. pyogenes. As to the kind of experiment: MIC, extended Gram-positive panel (grouped species). The series is classed as cell-based, Streptococcus spp. As to the method: as §1, with “Thirty μg/mL of PMBN had no effect on bacterial growth.” left out, “All animal procedures were performed by the contract research organization Pharmacology Discovery Services Taiwan in accordance with the Guide for the Care and Use of Laboratory Animals. The procedures were approved by the Institutional Ethics Committee of Pharmacology Discovery Services Taiwan, Ltd. (approval no. AB127662), in compliance with animal welfare legislation in Taiwan.” left out

The conditions of series [5]: reported values; cited from earlier work.
The subject of a further series is A. baumannii. In words: A. baumannii efflux chequerboard assay. Type of series: cell-based, Acinetobacter baumannii. Particulars: for MIC: Acinetobacter baumannii. As to the method:
Checkerboard assays were performed by preparing two separate 2-fold dilution series of compounds in two 96 well plates, one horizontally, one vertically. […] Plates were incubated at 37 C for 20 h and the absorbance (OD600) was read on a CLARIOstar spectrophotometer (BMG Labtech). The fractional inhibitory concentration was calculated as follows: ΣFIC = [(MIC of A in combination)/(MIC of A alone)] + [(MIC of B in combination)/(MIC of B alone)].

Values after ≈ are worked out from the molar mass of the structure shown. Read-outs that look alike come from different tables or passages of the source.
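For Response (death/test) in this document: male ICR mice given oral doses under a stepwise escalation scheme to find the highest tolerated dose.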

With `C[C@H]1COc2c(N3CC[C@@H](Nc4ncccn4)C3)c(F)cc3c(=O)c(C(=O)O)cn1c23` [Compound 46, (S)-9-Fluoro-3-methyl-7-oxo-10-((R)-3-(pyrimidin-2-ylamino)pyrrolidin-1-yl)-2,3-dihydro-7H-[1,4]oxazino[2,3,4-ij]quinoline-6-carboxylic acid], the “Response (death/test)” value is listed as 0/3 in series [1] (100 mg/kg); 0/3 in [1] (100 mg/kg, 24 h); 0/3 in series [1] (100 mg/kg, 48 h); 0/3 in series [1] (100 mg/kg, 72 h); 0/3 in series [1] (200 mg/kg); 0/3 in [1] (400 mg/kg). Also, the time-kill profile result in the series on A. baumannii strain AYE is “rapid bactericidal activity”.
Turning to `Cc1cc(C)nc(N[C@@H]2CCN(c3c(F)cc4c(=O)c(C(=O)O)cn5c4c3OC[C@@H]5C)C2)n1` [Compound 50, (S)-10-((R)-3-((4,6-Dimethylpyrimidin-2-yl)amino)pyrrolidin-1-yl)-9-fluoro-3-methyl-7-oxo-2,3-dihydro-7H-[1,4]oxazino[2,3,4-ij]quinoline-6-carboxylic acid], the MIC with E. faecalis (ATCC29212, ATCC 29212, read-out: MIC) is 0.25 µg/mL (≈ 0.551 µM); with E. faecalis (ATCC51299), 0.125 µg/mL (≈ 0.276 µM); with E. faecalis (ATCC51575, VanB (ATCC 51575), read-out: MIC) it was 0.25 µg/mL (≈ 0.551 µM); in the series on E. faecalis (ATCC700802) it was 0.125 µg/mL (≈ 0.276 µM); in the series with E. faecalis (CCUG47775, VanA (CCUG 47775), read-out: MIC), 0.5 µg/mL (≈ 1.1 µM); in the series with S. haemolyticus, 0.03 µg/mL (≈ 0.0662 µM). For the same compound, the MIC in series [2] stood at 0.06 µg/mL (≈ 0.132 µM); in series [3], 0.03 µg/mL (≈ 0.0662 µM); in the series with Streptococcus mutans, 0.03 µg/mL (≈ 0.0662 µM); in the series with Enterococcus gallinarum (Enterococcus gallinarum, ATCC 49608 / GALLINARUM, read-out: MIC), 0.25 µg/mL (≈ 0.551 µM); against Enterococcus gallinarum, 0.25 µg/mL (≈ 0.551 µM); in the series with Streptococcus pneumoniae (ATCC6301), 0.125 µg/mL (≈ 0.276 µM). For the same compound, the MIC stood at 0.125 µg/mL (≈ 0.276 µM) in the series on Streptococcus pneumoniae (ATCC49619); 0.125 µg/mL (≈ 0.276 µM) in the series with Streptococcus pneumoniae (ATCC51916); 0.06 µg/mL (≈ 0.132 µM) in the series on Streptococcus pneumoniae (ATCC700669, ST 23F (ATCC 700669), read-out: MIC); 0.06 µg/mL (≈ 0.132 µM) in the series with Streptococcus pneumoniae (ATCC700673, MDR (ATCC 700673), read-out: MIC); 0.06 µg/mL (≈ 0.132 µM) in the series on Streptococcus pneumoniae (ATCC700675, ATCC 700675, read-out: MIC); 0.125 µg/mL (≈ 0.276 µM) in the series on Streptococcus pneumoniae (ATCC700676). For the same compound, the MIC with Streptococcus pneumoniae (ATCC 700677 / PRSP, PRSP (ATCC 700677), read-out: MIC) was 0.06 µg/mL (≈ 0.132 µM); in the series on Streptococcus pneumoniae (PRSP (TM532), read-out: MIC), 0.06 µg/mL (≈ 0.132 µM); against Streptococcus sanguinis it was 0.25 µg/mL (≈ 0.551 µM); in the series with Streptococcus oralis, 0.25 µg/mL (≈ 0.551 µM); in the series with Streptococcus salivarius, 0.25 µg/mL (≈ 0.551 µM). Also, the “MIC range” value lay in the range of 0.125 to 0.5 µg/mL against E. faecalis (clinical isolates, Table S11B); 0.06 to 0.125 µg/mL against Streptococcus pneumoniae (including MDR and PRSP strains); 0.03 to 0.25 µg/mL in [4].
As for `C[C@H]1COc2c(N3CCN(C)CC3)c(F)cc3c(=O)c(C(=O)O)cn1c23` [Levofloxacin, (S)-9-Fluoro-3-methyl-10-(4-methylpiperazin-1-yl)-7-oxo-2,3-dihydro-7H-[1,4]oxazino[2,3,4-ij]quinoline-6-carboxylic acid, reference compound], the plasma protein binding in [5] was 38%. For the same compound, the “MIC +50 (0.25x MIC)” value with A. baumannii (A. baumannii ATCC 17978) was 0.007 to 0.06 µg/mL; with A. baumannii (A. baumannii AYE), 0.014 to 1.88 µg/mL. The “MIC +50 (0.5x MIC)” value is 0.009 to 0.06 µg/mL with A. baumannii (A. baumannii ATCC 17978) and 0.012 to 0.9 µg/mL in the series with A. baumannii (A. baumannii AYE). Further, the minimum inhibitory concentration (MIC) with A. baumannii (ATCC17978, read-out: MIC alone) came out at 0.125 µg/mL; in the series with A. baumannii (read-out: MIC alone), 4 µg/mL.

In general, MIC refers to the smallest concentration in the dilution series that meets the test's criterion for growth inhibition.
